Values quoted from earlier work in publication PMC8198792, “Prediction of Anticancer Peptides with High Efficacy and Low Toxicity by Hybrid Model Based on 3D Structure of Peptides” (International Journal of Molecular Sciences, 2021).
Read-outs that look alike come from different tables or passages of the source.

Test system: cancer cell lines
Set-up: method as in 6 sources, ref CancerPPD [45] and SATPdb ||| ref CancerPPD/SATPdb ||| ref CancerPPD, SATPdb, Swissprot (PDB) ||| ref CancerPPD/SATPdb/Swissprot(PDB) ||| ref CancerPPD / SATPdb ||| ...
Conditions: cited from earlier work
Text: Supplement ijms-22-05630-s001.zip/ACPs(seguence).xlsx, sheet "D1" | column: Activity || Supplement ijms-22-05630-s001.zip/ACPs(seguence).xlsx, sheet "D2" | column: Activity || Supplement ijms-22-05630-s001.zip/ACPs(seguence).xlsx, sheet "D3" | column: Activity || (+ 2 further places)

[1] = ACPs dataset D1, label 1 = ACP, 0 = non-ACP (non-anticancer AMPs from SATPdb), ref CancerPPD/SATPdb
[2] = ACPs dataset D4 (sheet "D4"), label 1 = ACP, 0 = non-ACP, ref CancerPPD / SATPdb
[3] = ACPs dataset D2 (supplement ACPs(seguence).xlsx, sheet D2), dataset label 1/0 (ACP / non-ACP), entries identified by Swissprot(PDB ID), ref CancerPPD/SATPdb/Swissprot(PDB)
[4] = ACPs dataset D5, sheet "D5", label 1 = ACP, 0 = non-ACP, ref CancerPPD [45] and SATPdb
[5] = ACPs dataset D1, 1 = ACP (positive), 0 = non-ACP (negative), label taken from databases, ref CancerPPD [45] and SATPdb
[6] = ACPs dataset D4 (sheet "D4"), label 1 = ACP, experimentally validated ACPs, ref CancerPPD [45] and SATPdb
[7] = ACPs dataset D5 (sheet "D5"), label 1 = ACP (positive set), sequences with CancerPPD/SATPdb ID, ref CancerPPD, SATPdb
[8] = ACPs dataset sheet D2, 1 = ACP (CancerPPD/SATPdb ID), 0 = non-ACP (Swissprot/PDB ID), ref CancerPPD, SATPdb, Swissprot (PDB)
[9] = ACPs dataset D3 (supplement sheet "D3"), 1 = ACP, 0 = non-ACP, ref CancerPPD [45] and SATPdb
[10] = ACPs dataset D4 (sheet "D4"), label 1 = ACP (CancerPPD ID), 0 = non-ACP (non-anticancer AMP, SATPdb ID), ref CancerPPD [45] and SATPdb
[11] = ACPs dataset D5 (sheet "D5"), label 1 = ACP (positive set), 0 = non-ACP (negative set), ref CancerPPD [45] and SATPdb
[12] = ACPs dataset D3 (sheet "D3"), label 1 = ACP, 0 = non-ACP, ref CancerPPD/SATPdb

GFLDTFKNLALNAAKSAGVSVLNSLSCKLFKTC [satpdb12796]
Activity [1]: 0 | Activity [2]: 0

VVKCSYRLGSPDSQCN [satpdb13432]
Activity [1]: 0 | Activity [2]: 0

FHVPDDRPCINPGRCPLVPDATCTFVCKAADNDFGYECQHVWTFEGQRVGCYA [5MRV X-ray 1.85,C,1-53]
Activity [3]: 0 | Activity [4]: 0

PGLKGKRGDSGSPATWTTRG [satpdb10562]
Activity [5]: 1 | Activity [6]: 1 | Activity [7]: 1 | Activity [8]: 1

MWKWFHNVLSWWWLLADKRPARDYNRK [compound 3074]
Activity [5]: 1 | Activity [6]: 1 | Activity [7]: 1 | Activity [8]: 1

GKWSKILGHLIR [compound 3641]
Activity [9]: 1 | Activity [10]: 1 | Activity [11]: 1

GLFSKFNKKKIKSGLIKIIKTAGKEAGLEALRTGIDVIGCKIKGEC [satpdb11080]
Activity [5]: 0 | Activity [10]: 0

GILGKLWEGFKSIV [satpdb13792]
Activity [12]: 0 | Activity [2]: 0 | Activity [4]: 0

ALWKTLLKKVLKA [satpdb12593]
Activity [2]: 0 | Activity [4]: 0

THRPPMWSPVWPGGGKLlLKlLkkLLKlLKKK [compound 4603]
Activity [9]: 1 | Activity [10]: 1 | Activity [11]: 1

MVEPLLSGIVLGLIVVTLAGLFYAAYKQYKRPNELGG [4OGQ X-ray 2.50,G,1-37]
Activity [3]: 0 | Activity [11]: 0

GWIRDFGKRIERVGQHTRDATIQTIAVAQQAANVAATLKG [satpdb12541]
Activity [1]: 0 | Activity [10]: 0

ANIKLSVQMKLFKRHLKWKIIVKLNDGRELSLDA [satpdb18078]
Activity [5]: 1 | Activity [6]: 1 | Activity [7]: 1 | Activity [8]: 1

MAKWRCKICGYIYDEDEGDPDNGISPGTKFEDLPDDWVCPLCGAPKSEFERIE [1YK5 X-ray 1.79 A/B/C/D 1-53]
Activity [3]: 0 | Activity [4]: 0

NHFTLKCPKTALTEPPTLAY [compound 3362]
Activity [5]: 1 | Activity [6]: 1 | Activity [7]: 1 | Activity [8]: 1

LHCPALVTYNTDTFESMPNPEGRYTFGASCV [satpdb27573]
Activity [5]: 1 | Activity [6]: 1 | Activity [7]: 1 | Activity [8]: 1

GIINTLQKYYSRVRGGRSAVLSSLPKEEQIGKSSTRGRKSSRRKK [satpdb11018]
Activity [5]: 0 | Activity [10]: 0

ARLKKCFNKVTGYCRKKCKVGERYEIGCLSGKLCCAN [satpdb10509]
Activity [5]: 0 | Activity [10]: 0

GKWLSLLKHILK [compound 3661]
Activity [9]: 1 | Activity [10]: 1 | Activity [11]: 1

APRLPQCQGDDQEKCLCNKDECPPGQCRFPRGDADPYCE [1DEC NMR - A 1-39]
Activity [3]: 0 | Activity [11]: 0

SPWSPCSGNCSTGKQQRTR [satpdb11308]
Activity [5]: 1 | Activity [6]: 1 | Activity [7]: 1 | Activity [8]: 1

VKLLVyPLKVKLyP [satpdb13876]
Activity [12]: 0 | Activity [2]: 0 | Activity [4]: 0

KWKLFKKIGIGKFKLAKKF [compound 1206]
Activity [9]: 1 | Activity [10]: 1 | Activity [11]: 1

GCSRWIIGIHGQICRD [satpdb12437]
Activity [1]: 0 | Activity [10]: 0

GVLSNVIGYLKKLGTGALNAVLKQ [satpdb12685]
Activity [1]: 0 | Activity [10]: 0

GMWKKILGKLIR [compound 3643]
Activity [9]: 1 | Activity [10]: 1 | Activity [11]: 1

KAAKKAWKWAKKAAKWAKKAA [compound 4479]
Activity [5]: 1 | Activity [6]: 1 | Activity [7]: 1 | Activity [8]: 1

KWKLFKKIPLHLAKKF [compound 1139]
Activity [9]: 1 | Activity [10]: 1 | Activity [11]: 1

KLALKLALKAlkAALKLA [satpdb10294]
Activity [5]: 0 | Activity [10]: 0

NYQWVPYQGRVPYPRGGLLkLLKklLKKLlKL [compound 3344]
Activity [9]: 1 | Activity [10]: 1 | Activity [11]: 1

QCESGPCCRNCKFLKEGTICKRARGDDMDDYCNGKTCDCPRNPHKGPAT [1RO3 NMR - A 1-49]
Activity [3]: 0 | Activity [11]: 0

KWKSFIKKAKTSFLHSAKKF [satpdb14273]
Activity [12]: 0 | Activity [2]: 0 | Activity [4]: 0

TSWSPCSASCGGGHYQRTR [satpdb16504]
Activity [5]: 1 | Activity [6]: 1 | Activity [7]: 1 | Activity [8]: 1

ALWKTLLKKVLKA [satpdb11986]
Activity [12]: 0

ATYYGNGLYCNKQKCWVDWNKASREIGKIIVNGWVQHGPWAPR [satpdb12250]
Activity [1]: 0 | Activity [10]: 0

CLRIGMRGRELMGGIGKTM [satpdb12393]
Activity [1]: 0 | Activity [10]: 0

RRWCFRVCYRGRFCYRKCR [satpdb14798]
Activity [12]: 0 | Activity [2]: 0 | Activity [4]: 0

KKWGWLAWVDPAYEFIKGFGKGAIKEGNKDKWKNI [2JPK NMR - A 1-35]
Activity [3]: 0 | Activity [11]: 0

MELVKVVFMGWFKNESMFTKEITMMKDDVQWATTQYAEVNKALVKAFIDDKKVCEVDCRG [5HY3 X-ray 3.10,B,1-60]
Activity [3]: 0 | Activity [4]: 0

KWKSFAKTFKSAKKTVAHTALKAISS [compound 1445]
Activity [5]: 1 | Activity [6]: 1 | Activity [7]: 1 | Activity [8]: 1

FKCRRWQWRMKKLGAPSITCVR [compound 1352]
Activity [5]: 1 | Activity [6]: 1 | Activity [7]: 1 | Activity [8]: 1

ACYCRIPACLAGERRYGTCFYMGRVWAFCC [satpdb12594]
Activity [1]: 0 | Activity [10]: 0

GAIKDALKGAAKTVAVELLKKAQCKLEKTC [satpdb13113]
Activity [1]: 0 | Activity [2]: 0

SKWSECSRTCGGGVKFQER [satpdb16830]
Activity [5]: 1 | Activity [6]: 1 | Activity [7]: 1 | Activity [8]: 1

FLPVIAGLAAKVLPKLFCAITKKC [satpdb12195]
Activity [1]: 0 | Activity [10]: 0

FLGALLGPLMNLLQ [satpdb14038]
Activity [12]: 0 | Activity [2]: 0 | Activity [4]: 0

GPWERCTAQCGGGIQARRR [satpdb29089]
Activity [5]: 1 | Activity [6]: 1 | Activity [7]: 1 | Activity [8]: 1

ILPLKLPLLPLRR [satpdb14372]
Activity [12]: 0 | Activity [2]: 0 | Activity [4]: 0

FLPKTLRKFFCRIRGGRCAVLNCLGKEEQIGRCSNSGRKCCRKKK [satpdb12338]
Activity [1]: 0 | Activity [10]: 0

ECRRLCYKQRCVTYCRGR [compound 4435]
Activity [5]: 1 | Activity [6]: 1 | Activity [7]: 1 | Activity [8]: 1

MISDEQLNSLAITFGIVMMTLIVIYHAVDSTMSPKN [1RKL NMR - A 1-36]
Activity [3]: 0 | Activity [11]: 0

GLLGSIFGAGKKIACALSGLC [satpdb11926]
Activity [1]: 0 | Activity [10]: 0

TMPFLFCNVNDCNFASRNDYSYWL [satpdb12405]
Activity [5]: 1 | Activity [6]: 1 | Activity [7]: 1 | Activity [8]: 1

SPPNQPSIMTFDYAKTNK [satpdb13153]
Activity [1]: 0 | Activity [2]: 0

FLPMLAGLAASMVPKLVCLITKKC [satpdb11064]
Activity [5]: 0 | Activity [10]: 0

FLGWLFKWAWK [compound 1722]
Activity [9]: 1 | Activity [6]: 1 | Activity [7]: 1

QEPHRHSIFTPQTNPRADLEKN [satpdb11381]
Activity [5]: 1 | Activity [6]: 1 | Activity [7]: 1 | Activity [8]: 1

TSPQREATCTSEVSGCPKIYNPVCGTDGITYSNECVLCSENKKRQTPVLIQKSGPC [1TGS X-ray 1.80,I,1-56]
Activity [3]: 0 | Activity [4]: 0

GIGKLFLHAAKKFAKAFVAEKMNS [satpdb10222]
Activity [5]: 0 | Activity [10]: 0

GFGCPFNQYECHAHCSGVPGYKGGYCKGLFKQTCNCY [satpdb12844]
Activity [1]: 0 | Activity [2]: 0

TEWTACSKSCGMGFSTRV [satpdb28517]
Activity [5]: 1 | Activity [6]: 1 | Activity [7]: 1 | Activity [8]: 1
